Data reported in patent US20200181104A1, “SSAO INHIBITORS AND USES THEREOF” (METACRINE, INC., priority 2018, published 2020).

Each compound was assayed against T1, Recombinant Human SSAO/VAP-1/AOC3 (Homo sapiens, UniProt Q16853) (assay: Human Semicarbazide-Sensitive Amine Oxidase (SSAO) Assay). Settings: recombinant enzyme, 30 minutes preincubation at 37° C., benzylamine substrate, Amplex Ultra Red/HRP fluorescence.
T1 construct: purchased R&D systems 3957-AO
T1 sequence (Q16853 1-763): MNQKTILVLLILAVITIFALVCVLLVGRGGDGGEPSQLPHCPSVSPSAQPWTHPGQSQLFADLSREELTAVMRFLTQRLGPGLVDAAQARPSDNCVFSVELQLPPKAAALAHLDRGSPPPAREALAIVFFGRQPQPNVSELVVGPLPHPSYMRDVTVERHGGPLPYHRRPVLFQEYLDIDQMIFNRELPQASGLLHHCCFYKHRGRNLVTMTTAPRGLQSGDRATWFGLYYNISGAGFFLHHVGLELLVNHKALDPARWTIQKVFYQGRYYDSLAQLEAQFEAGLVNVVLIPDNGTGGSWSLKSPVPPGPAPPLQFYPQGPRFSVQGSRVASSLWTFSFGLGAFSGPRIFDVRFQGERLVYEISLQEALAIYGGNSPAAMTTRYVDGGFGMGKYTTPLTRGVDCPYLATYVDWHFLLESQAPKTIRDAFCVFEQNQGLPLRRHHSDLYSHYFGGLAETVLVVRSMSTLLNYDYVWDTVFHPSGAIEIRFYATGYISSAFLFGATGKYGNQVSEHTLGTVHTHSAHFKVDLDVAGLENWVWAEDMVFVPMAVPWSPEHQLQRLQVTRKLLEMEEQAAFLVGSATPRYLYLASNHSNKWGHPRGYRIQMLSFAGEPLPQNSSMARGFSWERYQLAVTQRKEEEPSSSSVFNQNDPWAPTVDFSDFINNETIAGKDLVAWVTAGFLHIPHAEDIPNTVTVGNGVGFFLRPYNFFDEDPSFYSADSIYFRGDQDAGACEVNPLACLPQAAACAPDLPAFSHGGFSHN
Format: biochemical
Method in brief: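 IC50 from kinetic Amplex Ultra Red/HRP fluorescence (ex 544, em 590 nm, 30-120 min) after benzylamine addition. Beforehand, 6-10 compound dilutions were preincubated 30 min at 37 °C with recombinant human SSAO in 50 mM HEPES (enzyme working concentration 2.5 μg/ml).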

COC(C)(C)CCNC(=O)C12CCC(c3ccc(OC/C(=C/F)CN)cc3)(CC1)CC2 [Compound 2.138, (E)-4-(4-((2-(aminomethyl)-3-fluoroallyl)oxy)phenyl)-N-(3-methoxy-3-methylbutyl)bicyclo[2.2.2] octane-1-carboxamide] and COC1(CCNC(=O)C23CCC(c4ccc(OC/C(=C/F)CN)cc4)(CC2)CC3)CCC1 [Compound 2.147, (E)-4-(4-((2-(aminomethyl)-3-fluoroallyl)oxy)phenyl)-N-(2-(1-methoxycyclobutyl)ethyl) bicyclo[2.2.2]octane-1-carboxamide] cannot be ordered by IC50: at most 0.01 µM for the first, at most 0.01 µM for the second.

NC/C(=C\F)COc1ccc(C23CCC(C(=O)NCc4ccnnc4)(CC2)CC3)cc1 [Compound 2.139, (E)-4-(4-((2-(aminomethyl)-3-fluoroallyl)oxy)phenyl)-N-(pyridazin-4-ylmethyl)bicyclo[2.2.2]octane-1-carboxamide] and NC/C(=C\F)COc1ccc(C23CCC(C(=O)NCc4ccncn4)(CC2)CC3)cc1 [Compound 2.155, (E)-4-(4-((2-(aminomethyl)-3-fluoroallyl)oxy)phenyl)-N-(pyrimidin-4-ylmethyl)bicyclo[2.2.2]octane-1-carboxamide] cannot be ordered by IC50: at most 0.01 µM for the first, at most 0.01 µM for the second.

COc1nccc(CNC(=O)C23CCC(c4ccc(OC/C(=C/F)CN)cc4)(CC2)CC3)n1 [Compound 2.140, (E)-4-(4-((2-(aminomethyl)-3-fluoroallyl)oxy)phenyl)-N-((2-methoxypyrimidin-4-yl)methyl)bicyclo[2.2.2]octane-1-carboxamide] and COc1cnc(CNC(=O)C23CCC(c4ccc(OC/C(=C/F)CN)cc4)(CC2)CC3)cn1 [Compound 2.160, (E)-4-(4-((2-(aminomethyl)-3-fluoroallyl)oxy)phenyl)-N-((5-methoxypyrazin-2-yl)methyl)bicyclo[2.2.2]octane-1-carboxamide] cannot be ordered by IC50: at most 0.01 µM for the first, at most 0.01 µM for the second.

COc1ccc(CNC(=O)C23CCC(c4ccc(OC/C(=C/F)CN)cc4)(CC2)CC3)cn1 [Compound 2.141, (E)-4-(4-((2-(aminomethyl)-3-fluoroallyl)oxy)phenyl)-N-((6-methoxpyridin-3-yl)methyl)bicyclo[2.2.2]octane-1-carboxamide] and COc1cncc(CNC(=O)C23CCC(c4ccc(OC/C(=C/F)CN)cc4)(CC2)CC3)n1 [Compound 2.161, (E)-4-(4-((2-(aminomethyl)-3-fluoroallyl)oxy)phenyl)-N-((6-methoxypyrazin-2-yl)methyl)bicyclo[2.2.2]octane-1-carboxamide] cannot be ordered by IC50: at most 0.01 µM for the first, at most 0.01 µM for the second.

NC/C(=C\F)COc1ccc(C23CCC(C(=O)N4CC5(CCCCO5)C4)(CC2)CC3)cc1 [Compound 2.143, (E)-(4-(4-((2-(aminomethyl)-3-fluoroallyl)oxy)phenyl)bicyclo [2.2.2]octan-1-yl)(5-oxa-2-azaspiro[3.5]nonan-2-yl)methanone] and NC/C(=C\F)COc1ccc(C23CCC(C(=O)NC4CCOC5(CCC5)C4)(CC2)CC3)cc1 (centres unmarked) [Compound 2.154, (E)-4-(4-((2-(aminomethyl)-3-fluoroallyl)oxy)phenyl)-N-(5-oxaspiro[3.5]nonan-8-yl)bicyclo[2.2.2]octane-1-carboxamide] cannot be ordered by IC50: at most 0.01 µM for the first, at most 0.01 µM for the second.

COC1(CNC(=O)C23CCC(c4ccc(OC/C(=C/F)CN)cc4)(CC2)CC3)CC1 [Compound 2.144, (E)-4-(4-((2-(aminomethyl)-3-fluoroallyl)oxy)phenyl)-N-((1-methoxycyclopropyl)methyl) bicyclo[2.2.2]octane-1-carboxamide] and COCC1(CNC(=O)C23CCC(c4ccc(OC/C(=C/F)CN)cc4)(CC2)CC3)CC1 [Compound 2.151, (E)-4-(4-((2-(aminomethyl)-3-fluoroallyl)oxy)phenyl)-N-((1-(methoxymethyl)cyclopropyl)methyl)bicyclo[2.2.2]octane-1-carboxamide] cannot be ordered by IC50: at most 0.01 µM for the first, at most 0.01 µM for the second.

CO[C@H]1C[C@H](CNC(=O)C23CCC(c4ccc(OC/C(=C/F)CN)cc4)(CC2)CC3)C1 [Compound 2.145, 4-(4-(((E)-2-(aminomethyl)-3-fluoroallyl)oxy)phenyl)-N-(((1r,3r)-3-methoxycyclobutyl)methyl) bicyclo[2.2.2]octane-1-carboxamide] and CCOC1CC(NC(=O)C23CCC(c4ccc(OC/C(=C/F)CN)cc4)(CC2)CC3)C1 (centres unmarked) [Compound 2.146, 4-(4-(((E)-2-(aminomethyl)-3-fluoroallyl)oxy)phenyl)-N-((1r,3r)-3-ethoxycyclobutyl)bicyclo[2.2.2] octane-1-carboxamide] cannot be ordered by IC50: at most 0.01 µM for the first, at most 0.01 µM for the second.

CO[C@H]1C[C@H](CNC(=O)C23CCC(c4ccc(OC/C(=C/F)CN)cc4)(CC2)CC3)C1 [Compound 2.148, 4-(4-(((E)-2-(aminomethyl)-3-fluoroallyl)oxy)phenyl)-N-(((1s,3s)-3-methoxycyclobutyl)methyl) bicyclo[2.2.2]octane-1-carboxamide] and CCO[C@H]1C[C@@H](NC(=O)C23CCC(c4ccc(OC/C(=C/F)CN)cc4)(CC2)CC3)C1 [Compound 2.150, 4-(4-(((E)-2-(aminomethyl)-3-fluoroallyl)oxy)phenyl)-N-((1s,3s)-3-ethoxycyclobutyl)bicyclo[2.2.2] octane-1-carboxamide] cannot be ordered by IC50: at most 0.01 µM for the first, at most 0.01 µM for the second.

NC/C(=C\F)COc1ccc(C23CCC(C(=O)NC4(C(F)(F)F)CCOCC4)(CC2)CC3)cc1 [Compound 2.152, (E)-4-(4-((2-(aminomethyl)-3-fluoroallyl)oxy)phenyl)-N-(4-(trifluoromethyl)tetrahydro-2H-pyran-4-yl)bicyclo[2.2.2]octane-1-carboxamide] and CC1(C)CCC(NC(=O)C23CCC(c4ccc(OC/C(=C/F)CN)cc4)(CC2)CC3)CO1 (centres unmarked) [Compound 2.153, (E)-4-(4-((2-(aminomethyl)-3-fluoroallyl)oxy)phenyl)-N-(6,6-dimethyltetrahydro-2H-pyran-3-yl)bicyclo[2.2.2]octane-1-carboxamide] cannot be ordered by IC50: 0.01 to 0.1 µM for the first, at most 0.01 µM for the second.

N#CC1CCCC1NC(=O)C12CCC(c3ccc(OC/C(=C/F)CN)cc3)(CC1)CC2 (centres unmarked) [Compound 2.156, (E)-4-(4-((2-(aminomethyl)-3-fluoroallyl)oxy)phenyl)-N-(2-cyanocyclopentyl)bicyclo[2.2.2] octane-1-carboxamide] and Cc1cncc(CNC(=O)C23CCC(c4ccc(OC/C(=C/F)CN)cc4)(CC2)CC3)n1 [Compound 2.157, (E)-4-(4-((2-(aminomethyl)-3-fluoroallyl)oxy)phenyl)-N-((6-methylpyrazin-2-yl)methyl)bicyclo[2.2.2]octane-1-carboxamide] cannot be ordered by IC50: at most 0.01 µM for the first, at most 0.01 µM for the second.

Cc1cnc(CNC(=O)C23CCC(c4ccc(OC/C(=C/F)CN)cc4)(CC2)CC3)cn1 [Compound 2.158, (E)-4-(4-((2-(aminomethyl)-3-fluoroallyl)oxy)phenyl)-N-((5-methylpyrazin-2-yl)methyl)bicyclo[2.2.2]octane-1-carboxamide] and NC/C(=C\F)COc1ccc(C23CCC(C(=O)NCc4cncc(C(F)(F)F)c4)(CC2)CC3)cc1 [Compound 2.159, (E)-4-(4-((2-(aminomethyl)-3-fluoroallyl)oxy)phenyl)-N-((5-(trifluoromethyl)pyridin-3-yl)methyl)bicyclo[2.2.2]octane-1-carboxamide] cannot be ordered by IC50: at most 0.01 µM for the first, at most 0.01 µM for the second.

NC/C(=C\F)COc1ccc(C23CC(C(=O)NC4CCOCC4)(C2)C3)cc1 [Compound 3, (E)-3-(4-((2-(aminomethyl)-3-fluoroallyl)oxy)phenyl)-N-(tetrahydro-2H-pyran-4-yl)bicyclo[1.1.1]pentane-1-carboxamide] showed an IC50 of at most 0.01 µM.
